In the supplement of paper PMC10307832:

Tests used:
Assay in all cases: relative viability (nuclei count vs DMSO), 5 days (fraction); higher = more cells survive
Sorafenib + Palbociclib = compound: CNC(=O)c1cc(Oc2ccc(NC(=O)Nc3ccc(Cl)c(C(F)(F)F)c3)cc2)ccn1 [Sorafenib] + CC(=O)c1c(C)c2cnc(Nc3ccc(N4CCNCC4)cn3)nc2n(C2CCCC2)c1=O [Palbociclib] (partner 0.5 µM)
Summary of the method: (§1)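 Lung cancer cell lines were pin-tool dosed in 1536-well plates on the day after seeding, with either a lone drug or a fixed anchor-drug dose plus five library-drug doses (not always all listed) in √10 steps. Nuclei were counted on 4× images after 5 days. Relative viability is the ratio of treated-well to vehicle-well nuclei counts, with each value a median of duplicate plates.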

Sorafenib + Bortezomib = compound: CNC(=O)c1cc(Oc2ccc(NC(=O)Nc3ccc(Cl)c(C(F)(F)F)c3)cc2)ccn1 [Sorafenib] + CC(C)C[C@H](NC(=O)[C@H](Cc1ccccc1)NC(=O)c1cnccn1)B(O)O [Bortezomib] (partner 0.002 µM)
Summary of the method: as §1

Sorafenib + Navitoclax = compound: CNC(=O)c1cc(Oc2ccc(NC(=O)Nc3ccc(Cl)c(C(F)(F)F)c3)cc2)ccn1 [Sorafenib] + CC1(C)CCC(c2ccc(Cl)cc2)=C(CN2CCN(c3ccc(C(=O)NS(=O)(=O)c4ccc(N[C@H](CCN5CCOCC5)CSc5ccccc5)c(S(=O)(=O)C(F)(F)F)c4)cc3)CC2)C1 [Navitoclax] (partner 0.5 µM)
Summary of the method: as §1

Sorafenib + OSI-027 = compound: CNC(=O)c1cc(Oc2ccc(NC(=O)Nc3ccc(Cl)c(C(F)(F)F)c3)cc2)ccn1 [Sorafenib] + COc1cccc2cc(-c3nc([C@H]4CC[C@H](C(=O)O)CC4)n4ncnc(N)c34)[nH]c12 [OSI-027] (partner 0.5 µM)
Summary of the method: as §1

Sorafenib + Decitabine = compound: CNC(=O)c1cc(Oc2ccc(NC(=O)Nc3ccc(Cl)c(C(F)(F)F)c3)cc2)ccn1 [Sorafenib] + Nc1ncn([C@H]2C[C@H](O)[C@@H](CO)O2)c(=O)n1 [Decitabine] (partner 2 µM)
Summary of the method: as §1

| Cell Line | relative viability (Sorafenib + Palbociclib; first compound 0.08 µM) | relative viability (Sorafenib + Palbociclib; first compound 0.253 µM) | relative viability (Sorafenib + Palbociclib; first compound 2.53 µM) | relative viability (Sorafenib + Palbociclib; first compound 8 µM) | relative viability (Sorafenib + Bortezomib; first compound 0.08 µM) | relative viability (Sorafenib + Bortezomib; first compound 0.253 µM) | relative viability (Sorafenib + Bortezomib; first compound 2.53 µM) | relative viability (Sorafenib + Bortezomib; first compound 8 µM) | relative viability (Sorafenib + Navitoclax; first compound 0.08 µM) | relative viability (Sorafenib + Navitoclax; first compound 0.253 µM) | relative viability (Sorafenib + Navitoclax; first compound 2.53 µM) | relative viability (Sorafenib + Navitoclax; first compound 8 µM) | relative viability (Sorafenib + OSI-027; first compound 0.08 µM) | relative viability (Sorafenib + OSI-027; first compound 0.253 µM) | relative viability (Sorafenib + OSI-027; first compound 2.53 µM) | relative viability (Sorafenib + OSI-027; first compound 8 µM) | relative viability (Sorafenib + Decitabine; first compound 0.08 µM) | relative viability (Sorafenib + Decitabine; first compound 0.253 µM) | relative viability (Sorafenib + Decitabine; first compound 2.53 µM) | relative viability (Sorafenib + Decitabine; first compound 8 µM) |
| --- | --- | --- | --- | --- | --- | --- | --- | --- | --- | --- | --- | --- | --- | --- | --- | --- | --- | --- | --- | --- |
| HCC-366 | 0.393 | 0.424 | 0.323 | 0.353 | 1.05 | 0.98 | 0.991 | 0.831 | 1.11 | 0.944 | 1.06 | 1.01 | 0.951 | 0.937 | 0.866 | 0.327 | 0.337 | 0.295 | 0.34 | 0.279 |
| HCC-827 | 0.572 | 0.478 | 0.492 | 0.514 | 1.06 | 1.04 | 0.929 | – | 1.04 | 1.04 | 0.984 | 0.905 | 0.956 | 0.715 | 0.723 | 0.723 | 0.316 | 0.3 | 0.323 | 0.331 |
| HOP-62 | 0.454 | 0.372 | 0.358 | 0.263 | 0.639 | 0.64 | – | 0.232 | 1.14 | 0.758 | 0.761 | 0.814 | 0.848 | 0.631 | 0.759 | 0.657 | 0.253 | 0.22 | 0.186 | 0.198 |
| IA-LM | – | – | – | – | 0.704 | 0.363 | 0.458 | 0.408 | 0.579 | 0.385 | 0.488 | 0.438 | – | – | – | – | – | – | – | – |
| LC-2-ad | 0.54 | 0.456 | 0.447 | 0.393 | 1.25 | 1.01 | 0.914 | 0.618 | 0.343 | 0.413 | 0.418 | 0.218 | 0.889 | – | 0.9 | 0.573 | 0.881 | 0.789 | 0.762 | 0.59 |
| LCLC-97TM1 | 0.251 | 0.195 | 0.182 | 0.184 | 0.725 | 0.623 | 0.992 | 0.73 | 0.356 | 0.373 | 0.323 | 0.313 | 0.552 | 0.515 | 0.336 | 0.272 | 0.235 | 0.224 | 0.165 | 0.252 |
| LCLC-103H | 0.415 | 0.461 | 0.479 | 0.52 | 1.08 | 1.23 | 1.05 | 1.08 | – | – | – | – | 0.556 | 0.425 | 0.528 | 0.469 | 0.701 | 0.774 | 0.771 | 0.698 |
| LK-2 | 0.703 | 0.588 | 0.528 | 0.542 | – | – | – | – | 0.904 | 0.793 | 0.819 | 0.477 | 0.201 | 0.193 | 0.19 | 0.139 | 0.329 | 0.235 | 0.236 | 0.182 |
| NCI-H358 | 0.137 | 0.127 | 0.182 | 0.128 | – | – | – | – | – | – | – | – | – | 0.75 | 0.839 | – | 0.224 | 0.222 | 0.217 | 0.121 |
| NCI-H596 | – | – | – | – | 1.02 | – | 1.19 | 1.14 | 0.892 | 1.13 | 1.02 | 1.02 | 0.732 | 0.664 | 0.671 | 0.447 | 0.987 | 1.01 | 1.16 | 1.05 |
| NCI-H650 | 0.435 | 0.303 | 0.268 | 0.355 | 0.759 | 0.581 | 0.746 | 0.677 | – | – | – | – | 0.541 | 0.363 | 0.451 | 0.504 | 0.343 | 0.295 | 0.34 | 0.278 |
| NCI-H661 | 0.4 | 0.408 | 0.385 | 0.289 | 0.96 | 0.871 | 0.648 | 0.615 | – | – | – | – | 0.759 | 0.73 | 0.655 | 0.483 | 0.57 | 0.503 | 0.531 | 0.356 |
| NCI-H1395 | 0.696 | – | 0.613 | 0.644 | – | – | – | – | 1.35 | 1.08 | 1.1 | 1.05 | 0.691 | 0.562 | 0.72 | 0.459 | 0.732 | – | 0.772 | 0.743 |
| NCI-H1563 | – | – | – | – | – | 0.905 | 0.976 | 0.508 | – | – | – | – | 0.792 | 0.766 | 0.687 | 0.7 | – | – | – | – |
| NCI-H1703 | – | – | – | – | 0.193 | 0.207 | 0.183 | 0.151 | 1.03 | 0.319 | 0.215 | 0.148 | – | – | – | – | – | – | – | – |
| NCI-H1793 | 0.354 | 0.376 | 0.465 | 0.411 | – | – | – | – | 0.569 | 0.476 | 0.932 | 0.39 | 0.29 | 0.303 | 0.299 | 0.162 | 0.531 | 0.535 | 0.464 | – |
| NCI-H1944 | 0.339 | 0.346 | 0.371 | 0.306 | – | – | – | – | 1.06 | 1.06 | 1.18 | 0.872 | 0.4 | 0.381 | 0.436 | 0.334 | – | 0.47 | 0.482 | 0.38 |
| NCI-H2170 | 0.379 | 0.327 | 0.401 | 0.325 | – | – | – | – | 0.615 | 0.57 | 0.64 | 0.502 | 0.72 | 0.681 | 0.647 | 0.51 | 0.493 | 0.411 | 0.486 | 0.437 |
| NCI-H2228 | 0.692 | 0.883 | 0.589 | 0.517 | 1.24 | 0.893 | 1.02 | 0.615 | 0.784 | 0.706 | 0.828 | 0.477 | 0.626 | 0.607 | – | 0.365 | – | – | – | – |
| SK-MES-1 | 0.301 | 0.292 | 0.292 | 0.289 | – | – | – | – | 1.17 | 1.26 | 1.22 | – | 0.604 | 0.548 | 0.5 | 0.454 | 0.365 | 0.326 | 0.322 | 0.338 |
| SW 900 | 0.566 | 0.568 | 0.498 | 0.63 | – | – | – | – | – | – | – | – | 0.842 | 0.427 | 0.579 | 0.49 | 0.397 | 0.56 | 0.418 | 0.475 |
